Measured values published in publication PMC8748874, “Structures of the human peroxisomal fatty acid transporter ABCD1 in a lipid environment” (Communications Biology, 2022).

How the values were obtained:
Assay in all cases: molybdate-based colorimetric ATPase assay
Format in all cases: biochemical
[1] = biological target: T1, ABCD1 (ALDP) (Homo sapiens, UniProt P33897); details: 10 mM MgCl2, pH 7.5, 37 °C
T1 construct: full length, codon-optimized synthetic gene; C-terminal eYFP-Rho1D4 tag cut off with 3C protease; HEK293 Flp-In TREX; homodimer; in DDM/CHS, liposomes or MSP1D1 nanodiscs
T1 sequence (P33897 whole entry): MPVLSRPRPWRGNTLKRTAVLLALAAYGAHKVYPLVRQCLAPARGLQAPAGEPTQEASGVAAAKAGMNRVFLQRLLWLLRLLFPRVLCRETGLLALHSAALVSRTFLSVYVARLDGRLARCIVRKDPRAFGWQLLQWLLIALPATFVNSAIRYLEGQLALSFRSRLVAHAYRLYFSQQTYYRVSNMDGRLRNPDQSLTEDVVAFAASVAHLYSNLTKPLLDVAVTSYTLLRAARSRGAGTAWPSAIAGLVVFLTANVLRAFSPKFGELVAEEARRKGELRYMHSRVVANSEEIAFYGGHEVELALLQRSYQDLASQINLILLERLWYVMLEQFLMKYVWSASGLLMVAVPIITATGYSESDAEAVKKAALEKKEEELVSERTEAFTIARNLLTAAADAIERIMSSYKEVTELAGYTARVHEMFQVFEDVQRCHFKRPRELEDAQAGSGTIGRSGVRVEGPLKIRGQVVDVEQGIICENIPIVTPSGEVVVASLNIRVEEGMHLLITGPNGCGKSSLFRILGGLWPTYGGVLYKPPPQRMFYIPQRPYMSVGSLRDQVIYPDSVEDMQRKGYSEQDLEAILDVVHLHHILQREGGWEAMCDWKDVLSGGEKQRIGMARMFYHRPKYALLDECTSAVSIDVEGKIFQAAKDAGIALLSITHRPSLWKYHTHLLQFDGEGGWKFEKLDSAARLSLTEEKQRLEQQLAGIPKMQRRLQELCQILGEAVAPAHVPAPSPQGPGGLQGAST

[2] = biological target: T1, ABCD1 (ALDP); details: DDM/CHS detergent; 5 mM ATP, 10 mM MgCl2, pH 7.5, 37 °C; with C24:0-CoA; suggested competition for same site; no stimulation alone
[3] = biological target: T1, ABCD1 (ALDP); details: DDM/CHS detergent; 5 mM ATP, 10 mM MgCl2, pH 7.5, 37 °C
[4] = biological target: T1, ABCD1 (ALDP); details: DDM/CHS detergent; 5 mM ATP, 10 mM MgCl2, pH 7.5, 37 °C; remark: listed apart in the source

| Structure (SMILES) | inhibition of ATPase activity at 5 mM [1] | ATPase rate stimulation at 0.1 and 1 mM [3] | further results |
| --- | --- | --- | --- |
| Nc1ncnc2c1ncn2[C@@H]1O[C@H](COP(=O)(O)OP(=O)(O)OP(O)(O)=S)[C@@H](O)[C@H]1O [ATPγS] | sensitive to inhibition by sodium orthovanadate (VO4) or the non-hydrolysable ATP analog ATPγS | – | – |
| CC(=O)SCCNC(=O)CCNC(=O)[C@H](O)C(C)(C)COP(=O)(O)OP(=O)(O)OC[C@H]1O[C@@H](n2cnc3c(N)ncnc32)[C@H](O)[C@@H]1OP(=O)(O)O [acetyl-CoA] | – | – | decrease of C24:0-CoA stimulated ATPase [2]: it can partially inhibit ATPase stimulation by C24:0-CoA |
| CCCCCCCCCCCCCCCCCCCCCCCCCC(=O)SCCNC(=O)CCNC(=O)[C@H](O)C(C)(C)COP(=O)(O)OP(=O)(O)OC[C@H]1O[C@@H](n2cnc3c(N)ncnc32)[C@H](O)[C@@H]1OP(=O)(O)O [C26:0-CoA] | – | we observed ATPase rate stimulation for C24:0-CoA and C26:0-CoA | – |
| [O]=[V]([OH])([OH])[OH] [sodium orthovanadate] | ATP hydrolysis was sensitive to inhibition by sodium orthovanadate (VO4) | – | – |
| CCCCCCCC/C=C\CCCCCCCC(=O)SCCNC(=O)CCNC(=O)[C@H](O)C(C)(C)COP(=O)(O)OP(=O)(O)OC[C@H]1O[C@@H](n2cnc3c(N)ncnc32)[C@H](O)[C@@H]1OP(=O)(O)O [C18:1-CoA] | – | – | ATPase rate stimulation [4]: we also observed ATPase rate stimulation by C18:1-CoA |
| CCCCCCCCCCCCCCCCCCCCCCCC(=O)SCCNC(=O)CCNC(=O)[C@H](O)C(C)(C)COP(=O)(O)OP(=O)(O)OC[C@H]1O[C@@H](n2cnc3c(N)ncnc32)[C@H](O)[C@@H]1OP(=O)(O)O [C24:0-CoA] | – | we observed ATPase rate stimulation for C24:0-CoA and C26:0-CoA | – |
